Measurements: article PMC7385619, “A triple action CDK4/6-PI3K-BET inhibitor with augmented cancer cell cytotoxicity” (Cell Discovery, 2020)

Assays:
[1] = Cell viability (cytotoxicity) assay, normal tonsillar epithelial cells; assay type: cell-based; conditions: human, normal tonsillar epithelial cells (RRP008), surrogate for toxicity of normal tissue, read-out: Half maximal inhibitory concentration (IC50) in cell line cytotoxicity assays, Tonsillar Epithelia
BRD2 (BD1) = molecular target: T1, BRD2 (BD1) (Homo sapiens, UniProt P25440); assay: AlphaScreen bromodomain binding assay, BRD2 BD1; conditions: Fig. 1b; italicized values from the literature (italics not visible)
T1 construct: tagged bromodomains and acetylated histone peptides as; purchased Reaction Biology

PI3Kδ = molecular target: T2, PI3Kδ (Homo sapiens, UniProt O00329); assay: In vitro kinase assay, PI3Kδ; assay type: biochemical; conditions: Fig. 1b; italicized values from the literature (italics not visible)
T2 construct: purchased ThermoFisher Scientific

BRD2 (BD2) = molecular target: T3, BRD2 (BD2) (Homo sapiens, UniProt P25440); assay: AlphaScreen bromodomain binding assay, BRD2 BD2; conditions: Fig. 1b; italicized values from the literature (italics not visible)
T3 construct: tagged bromodomains and acetylated histone peptides as; purchased Reaction Biology

[2] = tested on: pAKT Ser473 (downstream surrogate of PI3K activity); assay: Immunoblotting for Akt phosphorylation; assay type: cell-based, human; conditions: Huh7, CHLA-255 and Jeko-1 cells, stimulated with 50 ng/mL IGF-1, increasing concentrations, 30 minutes
Text: (§1) from James Bradner (Dana-Farber Cancer Institute, Boston, MA). […]
(§2) from Novartis (Basel, Switzerland). Palbociclib was obtained from LC Laboratories (Woburn, MA). Recombinant human IGF-1 was from Peprotech (Rocky Hill, NJ). Antibodies specific for […]
(§3) Cell Signaling Technology (Beverly, MA). GAPDH antibody (GT239) was from GeneTex, Inc.
(§4) Molecular models were created to design and dock molecules in silico using the software engines AutoDock Vina1 and rDock2 and the crystal structures of BRD4 (PDB ID: 4CFK), PI3K (PDB ID: 4JPS) and CDK6 (PDB ID: 5L2T).
(§5) Bromodomain and kinase assays
(§6) Inhibition of BET family members was measured using Alpha Screen assays from Reaction Biology (Malvern, PA) with His -tagged bromodomains and acetylated histone peptides as ligands. CDK and PI3K isoform activities were measured using in vitro kinase assays from Reaction Biology and ThermoFisher Scientific (Waltham, MA), respectively. KINOME scan and BROMOscan assays were performed at Eurofins DiscoverX (Fremont, CA) with data analyzed […]
(§7) Protein expression and purification
(§8) BRD4 BD1 (aa 43-180) and BD2 (aa 342 -460) were expressed in E. coli BL21 (DE3) RIL in either Luria Broth or […] minimal media supplemented with 15NH4Cl. […]
(§9) or 100 µM in triplicate the following day. […] For CCK8, absorbance was measured at 450 nm; for Alamar Blue, fluorescence signals were read as emission at 590 nm after excitation at 560 nm. […]

[3] = tested on: Hepatocellular carcinoma cells (Hep3B, HepG2, and Huh7); assay: Cell viability (cytotoxicity) assay, hepatocellular carcinoma cells; assay type: cell-based; conditions: Homo sapiens; 48 hours, CCK8 or Alamar Blue; curves of Fig. 1f-j; read-out: Half maximal inhibitory concentration (IC50) in cell line cytotoxicity assays, Hepatocellular Carcinoma
[4] = tested on: NCI-60 Panel of Human Tumor Cell Line; assay type: cell-based; conditions: 10 µM, one-dose assay
[5] = tested on: pRb Ser780 (downstream surrogate of CDK4/6 activity); assay: Immunoblotting for Rb phosphorylation; assay type: cell-based, human; conditions: Huh7, CHLA-255 and Jeko-1 cells, stimulated with 50 ng/mL IGF-1, increasing concentrations, 30 minutes
Text: as §1, §2, §3, §4, §5, §6, §7, §8, §9

BRD3 (BD2) = molecular target: T4, BRD3 (BD2) (Homo sapiens, UniProt Q15059); assay: AlphaScreen bromodomain binding assay, BRD3 BD2; conditions: Fig. 1b; italicized values from the literature (italics not visible)
T4 construct: tagged bromodomains and acetylated histone peptides as; purchased Reaction Biology

DNA-PK = DNA-PK (Homo sapiens, UniProt P78527); assay: In vitro kinase assay, DNA-PK; assay type: biochemical; conditions: Fig. 1b; italicized values from the literature (italics not visible)
BRD3 (BD1) = molecular target: T5, BRD3 (BD1) (Homo sapiens, UniProt Q15059); assay: AlphaScreen bromodomain binding assay, BRD3 BD1; conditions: Fig. 1b; italicized values from the literature (italics not visible)
T5 construct: tagged bromodomains and acetylated histone peptides as; purchased Reaction Biology

CDK4 = CDK4 (Homo sapiens, UniProt P11802); assay: In vitro kinase assay, CDK4; assay type: biochemical; conditions: Fig. 1b; italicized values from the literature (italics not visible)
CDK2 = molecular target: T6, CDK2 (Homo sapiens, UniProt P24941); assay: In vitro kinase assay, CDK2; assay type: biochemical; conditions: Fig. 1b; italicized values from the literature (italics not visible)
T6 construct: purchased Reaction Biology

CDK6 = molecular target: T7, CDK6 (Homo sapiens, UniProt Q00534); assay: In vitro kinase assay, CDK6; assay type: biochemical; conditions: Fig. 1b; italicized values from the literature (italics not visible)
T7 construct: purchased Reaction Biology

PI3Kγ = molecular target: T8, PI3Kγ (Homo sapiens, UniProt P48736); assay: In vitro kinase assay, PI3Kγ; assay type: biochemical; conditions: Fig. 1b; italicized values from the literature (italics not visible)
T8 construct: purchased ThermoFisher Scientific

[6] = tested on: neuroblastoma cells (CHLA-255, CHLA-136, and SMS-KNCR); assay: Cell viability (cytotoxicity) assay, neuroblastoma cells; assay type: cell-based; conditions: Homo sapiens, 48 hours, CCK8 or Alamar Blue, curves of Fig. 1f-j, read-out: Half maximal inhibitory concentration (IC50) in cell line cytotoxicity assays, Neuroblastoma

T4 sequence (Q15059 306-415 limits assumed): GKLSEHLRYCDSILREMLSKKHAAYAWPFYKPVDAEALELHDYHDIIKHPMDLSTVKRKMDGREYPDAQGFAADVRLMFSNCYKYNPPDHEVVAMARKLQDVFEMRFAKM
Sequence of CDK4 (P11802 whole entry): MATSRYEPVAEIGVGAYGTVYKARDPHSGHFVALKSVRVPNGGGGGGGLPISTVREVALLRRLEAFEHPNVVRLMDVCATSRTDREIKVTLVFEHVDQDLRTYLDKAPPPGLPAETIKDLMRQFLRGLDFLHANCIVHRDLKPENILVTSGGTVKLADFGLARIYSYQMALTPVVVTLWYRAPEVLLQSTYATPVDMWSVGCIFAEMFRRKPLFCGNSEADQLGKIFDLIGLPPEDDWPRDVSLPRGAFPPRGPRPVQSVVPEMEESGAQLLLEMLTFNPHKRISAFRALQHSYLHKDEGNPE
Sequence of CDK4 (P24385 whole entry partner): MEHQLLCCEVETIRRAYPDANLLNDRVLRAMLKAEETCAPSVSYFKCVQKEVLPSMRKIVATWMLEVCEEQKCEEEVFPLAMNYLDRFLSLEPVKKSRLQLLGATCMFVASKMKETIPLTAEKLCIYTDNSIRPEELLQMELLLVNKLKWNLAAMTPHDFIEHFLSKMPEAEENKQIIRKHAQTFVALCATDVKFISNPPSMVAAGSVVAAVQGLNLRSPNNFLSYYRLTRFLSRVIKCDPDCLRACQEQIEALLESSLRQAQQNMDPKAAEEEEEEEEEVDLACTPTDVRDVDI
T8 sequence (P48736 whole entry): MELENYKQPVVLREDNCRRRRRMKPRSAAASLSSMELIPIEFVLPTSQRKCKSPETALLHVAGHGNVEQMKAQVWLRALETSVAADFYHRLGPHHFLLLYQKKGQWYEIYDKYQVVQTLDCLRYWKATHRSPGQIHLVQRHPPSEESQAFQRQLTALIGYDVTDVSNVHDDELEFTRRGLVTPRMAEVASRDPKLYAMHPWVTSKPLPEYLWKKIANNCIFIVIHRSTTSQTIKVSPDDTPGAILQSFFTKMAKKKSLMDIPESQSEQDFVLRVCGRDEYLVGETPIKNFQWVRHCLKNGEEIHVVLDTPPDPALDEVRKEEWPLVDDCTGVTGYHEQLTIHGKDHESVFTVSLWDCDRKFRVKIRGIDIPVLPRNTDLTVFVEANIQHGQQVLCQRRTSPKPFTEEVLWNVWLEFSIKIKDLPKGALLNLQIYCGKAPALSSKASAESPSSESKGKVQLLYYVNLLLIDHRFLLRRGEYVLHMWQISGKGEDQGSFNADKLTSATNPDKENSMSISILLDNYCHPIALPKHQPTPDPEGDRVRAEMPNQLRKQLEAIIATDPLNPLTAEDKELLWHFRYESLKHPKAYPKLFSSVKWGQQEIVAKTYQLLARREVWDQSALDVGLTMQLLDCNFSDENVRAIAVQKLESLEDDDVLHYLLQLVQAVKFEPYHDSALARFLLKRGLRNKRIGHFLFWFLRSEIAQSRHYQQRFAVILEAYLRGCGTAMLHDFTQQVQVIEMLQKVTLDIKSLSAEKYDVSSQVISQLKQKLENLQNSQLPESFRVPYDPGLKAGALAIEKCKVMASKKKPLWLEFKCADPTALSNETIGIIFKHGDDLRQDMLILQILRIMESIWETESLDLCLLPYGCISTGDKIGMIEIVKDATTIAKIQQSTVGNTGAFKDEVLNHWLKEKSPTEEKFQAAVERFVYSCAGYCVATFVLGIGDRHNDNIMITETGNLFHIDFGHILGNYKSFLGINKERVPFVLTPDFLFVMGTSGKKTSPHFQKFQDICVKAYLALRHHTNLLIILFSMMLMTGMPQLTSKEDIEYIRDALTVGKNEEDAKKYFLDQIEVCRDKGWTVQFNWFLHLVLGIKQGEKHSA
T1 sequence (P25440 74-180 limits assumed): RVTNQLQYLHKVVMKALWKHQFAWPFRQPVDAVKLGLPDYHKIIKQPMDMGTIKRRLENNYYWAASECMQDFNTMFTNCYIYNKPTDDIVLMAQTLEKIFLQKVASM
T3 sequence (P25440 344-453 limits assumed): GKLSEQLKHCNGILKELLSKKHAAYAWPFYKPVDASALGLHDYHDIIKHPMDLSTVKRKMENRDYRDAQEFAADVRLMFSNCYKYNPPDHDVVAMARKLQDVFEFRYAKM
T7 sequence (Q00534 whole entry): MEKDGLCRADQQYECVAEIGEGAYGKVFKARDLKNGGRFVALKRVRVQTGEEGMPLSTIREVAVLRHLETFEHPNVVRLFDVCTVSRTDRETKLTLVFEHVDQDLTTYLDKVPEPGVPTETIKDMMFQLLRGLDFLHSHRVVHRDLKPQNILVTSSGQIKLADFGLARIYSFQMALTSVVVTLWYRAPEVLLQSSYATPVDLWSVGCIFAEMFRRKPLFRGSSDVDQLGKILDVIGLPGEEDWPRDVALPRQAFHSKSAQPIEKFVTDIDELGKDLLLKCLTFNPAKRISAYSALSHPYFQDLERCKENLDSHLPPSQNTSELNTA
T7 sequence (P24385 whole entry partner): as the sequence (P24385 whole entry partner) above
T2 sequence (O00329 whole entry): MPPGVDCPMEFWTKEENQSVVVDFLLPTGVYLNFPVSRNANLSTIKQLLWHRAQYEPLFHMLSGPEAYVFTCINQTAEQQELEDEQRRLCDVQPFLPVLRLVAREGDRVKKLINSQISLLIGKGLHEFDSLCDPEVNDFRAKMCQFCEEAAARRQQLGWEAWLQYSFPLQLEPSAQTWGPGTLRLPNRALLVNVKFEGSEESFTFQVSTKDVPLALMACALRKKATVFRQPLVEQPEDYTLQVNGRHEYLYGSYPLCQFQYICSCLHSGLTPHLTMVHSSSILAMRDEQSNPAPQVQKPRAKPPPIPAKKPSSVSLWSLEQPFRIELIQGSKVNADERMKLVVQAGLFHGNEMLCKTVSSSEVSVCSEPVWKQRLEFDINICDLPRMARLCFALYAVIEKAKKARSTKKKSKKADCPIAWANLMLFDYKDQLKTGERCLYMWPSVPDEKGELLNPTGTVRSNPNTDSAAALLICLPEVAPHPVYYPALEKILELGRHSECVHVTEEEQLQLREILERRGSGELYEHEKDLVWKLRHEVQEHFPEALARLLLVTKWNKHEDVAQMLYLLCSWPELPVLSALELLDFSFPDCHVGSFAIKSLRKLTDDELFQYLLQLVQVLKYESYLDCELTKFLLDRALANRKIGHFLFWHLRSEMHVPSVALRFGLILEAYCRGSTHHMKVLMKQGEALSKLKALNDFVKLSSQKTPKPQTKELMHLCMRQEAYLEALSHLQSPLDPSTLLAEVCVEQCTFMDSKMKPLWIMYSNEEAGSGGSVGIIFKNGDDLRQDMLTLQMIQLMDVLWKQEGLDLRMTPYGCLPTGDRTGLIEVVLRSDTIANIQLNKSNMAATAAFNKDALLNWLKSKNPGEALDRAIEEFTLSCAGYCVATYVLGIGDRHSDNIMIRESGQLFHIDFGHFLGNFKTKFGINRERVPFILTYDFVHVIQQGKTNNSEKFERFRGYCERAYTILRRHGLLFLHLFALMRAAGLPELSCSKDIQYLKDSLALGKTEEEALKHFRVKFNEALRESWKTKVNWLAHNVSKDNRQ
T2 sequence (P27986 whole entry partner): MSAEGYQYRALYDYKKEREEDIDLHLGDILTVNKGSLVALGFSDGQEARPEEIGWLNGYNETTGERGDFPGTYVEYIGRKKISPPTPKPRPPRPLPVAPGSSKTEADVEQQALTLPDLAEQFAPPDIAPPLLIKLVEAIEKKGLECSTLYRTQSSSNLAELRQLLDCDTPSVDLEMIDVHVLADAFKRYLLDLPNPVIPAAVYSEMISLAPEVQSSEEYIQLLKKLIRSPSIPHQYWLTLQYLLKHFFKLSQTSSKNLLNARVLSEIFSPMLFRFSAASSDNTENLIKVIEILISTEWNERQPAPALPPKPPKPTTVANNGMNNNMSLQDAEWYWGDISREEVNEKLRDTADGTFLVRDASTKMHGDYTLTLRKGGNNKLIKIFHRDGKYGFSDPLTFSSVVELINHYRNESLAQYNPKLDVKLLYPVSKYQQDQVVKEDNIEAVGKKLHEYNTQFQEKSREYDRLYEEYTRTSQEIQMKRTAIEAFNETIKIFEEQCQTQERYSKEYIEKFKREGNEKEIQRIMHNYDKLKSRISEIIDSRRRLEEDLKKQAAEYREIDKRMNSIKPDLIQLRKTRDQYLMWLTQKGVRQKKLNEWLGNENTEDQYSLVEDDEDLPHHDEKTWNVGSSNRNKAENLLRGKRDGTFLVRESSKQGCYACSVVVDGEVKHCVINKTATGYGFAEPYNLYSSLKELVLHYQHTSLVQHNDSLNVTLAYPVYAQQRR
T5 sequence (Q15059 34-140 limits assumed): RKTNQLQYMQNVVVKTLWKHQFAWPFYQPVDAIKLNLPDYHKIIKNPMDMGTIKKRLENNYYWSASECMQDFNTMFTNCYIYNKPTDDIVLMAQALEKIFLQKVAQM

Q: For CN(C)C(=O)c1cc2cnc(Nc3ccc(-c4csc5c(=O)cc(N6CCOCC6)oc45)cc3)nc2n1C1CCCC1 [SRX3177], which IC50 at 48 h [1] is on record?
A: 34000 nM

Q: And the IC50 (BRD2 (BD1))?
A: 1410 nM

Q: And the IC50 (PI3Kδ)?
A: 83 nM

Q: And the IC50 (BRD2 (BD2))?
A: 994 nM

Q: What about the “levels of Akt phosphorylation” value [2] of the same molecule?
A: decrease in levels

Q: What about the IC50 [3] of the same molecule?
A: 640 nM

Q: What about the “cytotoxic effect in the NCI-60 panel” value [4] of the same molecule?
A: cytotoxic effects on the majority of the cell lines tested

Q: And the “tumor cytotoxicity compared to SF2523 or SRX3177P” value ([4]; NCI-60 panel)?
A: greater tumor cytotoxicity

Q: What about the “levels of Rb phosphorylation” value [5] of the same molecule?
A: decrease in levels of Rb phosphorylation

Q: And the IC50 (BRD3 (BD2))?
A: 226 nM

Q: What about the IC50 (DNA-PK) of the same molecule?
A: 21 nM

Q: And the IC50 (BRD3 (BD1))?
A: 106 nM

Q: And the IC50 (CDK4)?
A: < 2.5 nM

Q: What about the IC50 (CDK2) of the same molecule?
A: 500 nM

Q: What about the IC50 (CDK6) of the same molecule?
A: 3.3 nM

Q: And the IC50 (PI3Kγ)?
A: 3180 nM

Q: And the IC50 [6]?
A: 550 nM
